These results are taken from EP0972764A1, “Aminoalcohols and aminoketones as CNS active agents” (Universita Degli Studi di Firenze, priority 1998, dated 2000).

The target in data set [1] is T1, S2 (Serotonine) receptors (Rattus norvegicus, UniProt P14842).
T1 construct: preparation of rat brain membrane enriched in D2 (Dopamine) or S2 (Serotonine) receptors; from tissue; host or cells: rat brain membranes
The experiment in a line: In vitro inhibition of 3H-spiperone binding, S2 assay (rat brain membranes). The protocol:
The compounds I, prepared according to the present invention, were tested in vitro on preparation of rat brain membrane enriched in D2 (Dopamine) or S2 (Serotonine) receptors accordingly known methods to perform inhibition experiments of the binding of ^3H-receptors ligands. For the S2 receptor assay the method described by List and Seeman (List S.J. and Seeman P. Proc. Natl. Acad. Sci. USA. 78:2620-2624, 1981) was used with slight adaptations.

In data set [2] the target is T2, D2 (Dopamine) receptors (Rattus norvegicus, UniProt P61169).
T2 construct: preparation of rat brain membrane enriched in D2 (Dopamine) or S2 (Serotonine) receptors; from tissue; host or cells: rat brain membranes
T2 sequence (P61169 whole entry): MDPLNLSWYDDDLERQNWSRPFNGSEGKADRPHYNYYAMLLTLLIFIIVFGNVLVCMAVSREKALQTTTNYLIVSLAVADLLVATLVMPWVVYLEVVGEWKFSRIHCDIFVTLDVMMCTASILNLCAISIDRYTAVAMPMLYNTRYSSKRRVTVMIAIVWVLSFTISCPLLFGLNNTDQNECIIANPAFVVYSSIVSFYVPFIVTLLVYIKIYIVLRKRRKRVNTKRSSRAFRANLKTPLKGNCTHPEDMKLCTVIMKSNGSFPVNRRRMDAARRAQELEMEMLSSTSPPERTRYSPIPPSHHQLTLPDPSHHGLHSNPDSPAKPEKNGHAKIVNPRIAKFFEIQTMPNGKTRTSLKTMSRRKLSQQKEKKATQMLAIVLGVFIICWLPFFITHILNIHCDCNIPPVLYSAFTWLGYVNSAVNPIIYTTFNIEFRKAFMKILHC
In words: In vitro inhibition of 3H-spiperone binding, D2 assay (rat brain membranes). The method, then:
The compounds I, prepared according to the present invention, were tested in vitro on preparation of rat brain membrane enriched in D2 (Dopamine) or S2 (Serotonine) receptors accordingly known methods to perform inhibition experiments of the binding of ^3H-receptors ligands.
For the D2 assays the method described by Ferretti et al. (Life Sci 42(24):2457-65, 1988) was used.

A short description of data set [3]: First pass cerebral extraction in the rat (blood brain barrier crossing of radiolabelled compound). In kind it is in vivo. The settings on record: intracardiac injection, physiological rCBF range 0.8-1 ml/min/g. The protocol: Compounds I, prepared according to the present invention and containing radioactive isotopes were tested inrespect of their capacity to cross the brain blood barrier, since CNS receptors tracers should be able to pass through the intact blood brain barrier following intravenous injection.
Measures of the rat brain extraction of the compounds was determined following known procedures based on the use of labelled reference substances with known extraction.
In the rat the first pass cerebral extraction of N-benzyl-3-(4-fluoro-2-^125I-iodo-fenil)-hydroxypropylamine [compound I with R1 = H and R2 = Benzyl, Q = single bond Wn = 2-^125I, 4-F, n = 2, A = OH, m = 0, a = single bond] was evaluated measuring the radioactive compounds concentration in the brain, after an intracardiac injection of a mixture of the tested compound, a completely extracted tracer, as the albumin microspheres labelled with ^99mTc (undergoing to a sort of entrapment in the brain microvasculature) and a non extracted tracer as the sodium salt of hortoiodoippuric acid.

T1 sequence (P14842 whole entry): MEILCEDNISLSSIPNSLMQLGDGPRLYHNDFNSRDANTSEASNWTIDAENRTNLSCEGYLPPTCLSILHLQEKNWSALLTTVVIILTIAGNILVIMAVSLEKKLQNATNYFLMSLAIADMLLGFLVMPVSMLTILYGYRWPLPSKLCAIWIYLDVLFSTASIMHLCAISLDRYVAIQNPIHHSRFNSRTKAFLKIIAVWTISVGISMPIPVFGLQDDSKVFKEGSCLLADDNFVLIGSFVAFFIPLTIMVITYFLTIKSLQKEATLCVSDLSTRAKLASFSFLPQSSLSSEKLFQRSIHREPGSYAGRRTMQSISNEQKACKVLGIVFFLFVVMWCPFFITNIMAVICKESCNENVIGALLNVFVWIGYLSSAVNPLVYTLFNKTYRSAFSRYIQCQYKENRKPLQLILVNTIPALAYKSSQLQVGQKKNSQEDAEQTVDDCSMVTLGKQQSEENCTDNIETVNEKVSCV

As for “2-[3-(4-fluorophenyl)-3-oxopropyl]-tetrahydro-2H-isoindole”, the “binding affinity, column T1” value in data set [1] (compounds at 10 µM concentration, rat brain membrane, unit not given, column head T1, text says S2) was 65. Further, the “binding affinity towards D2 receptors (column D2)” value in data set [2] (compounds at 10 µM concentration, rat brain membrane, unit not given) amounted to 12.

On to `OC(CCNCc1ccccc1)c1ccc(F)cc1Br` (racemic) [N-benzyl-3-(2-bromo-4-fluorophenyl)-3-hydroxypropylamine], for which the IC50 in data set [1] (inhibition of ^3H-spiperone binding, S2 assay, tested in its racemic form) turned out to be 18.7 µM; in data set [2] (inhibition of ^3H-spiperone binding, D2 assay, tested in its racemic form), 34 µM.

As for `OC(CCNCc1ccccc1)c1ccc(F)cc1[125I]` (centres unmarked) [N-benzyl-3-(4-fluoro-2-^125I-iodo-fenil)-hydroxypropylamine], the “cerebral tissue extraction fraction” value in data set [3] is recorded as “about 50%”.

As usually defined, the IC50 is the concentration at which inhibition is half-maximal. A lower IC50 goes with higher potency.
